The numbers were not newly measured in US20190289847A1, “SUSTAINED RELEASE FIBERS” (INVISTA TEXTILES (U.K.) LIMITED, priority 2016, published 2019), which cites them from elsewhere.

For one series, the system named is fleas and ticks. To be noted: literature.

For `O=C(Oc1ccccc1)c1ccccc1O` [phenyl salicylate], in the series on dust mites (applied in a typical manner, i.e. topical application, at best), the duration of efficacy is 3-4 months. Besides, the “effectiveness against dust mites” value with dust mites (literature) is listed as “effective”. In the series on fleas and ticks, the “effectiveness against fleas and ticks” value was “effective”.
